Laboratory results published in patent publication US20100234433A1, “GLYCOGEN PHOSPHORYLASE INHIBITOR COMPOUND AND PHARMACEUTICAL COMPOSITION THEREOF” (priority 2007, published 2010).

Key:
[1] = target: T1, human liver glycogen phosphorylase a (HLGPa) (Homo sapiens, UniProt P06737); assay: Human liver glycogen phosphorylase a enzymatic activity assay; assay type: biochemical; conditions: 15 nM HLGPa, coupled resorufin fluorescence readout; assay run with and without 10 mM glucose, condition of the value not stated
T1 construct: creating a full-length cDNA fused at the 5′ end to codons for methionine-glycine-alanine-histidine; 6x histidine tag (leader Met-Gly-Ala-His6-Gly-Gly) (N); Tev protease cleavage site (Glu-Asn-Leu-Tyr-Phe-Gln-Gly-Gly) (N); made in house; host or cells: E. coli (bacterial expression plasmid pTXK1007LTev)
T1 sequence (P06737 1-847): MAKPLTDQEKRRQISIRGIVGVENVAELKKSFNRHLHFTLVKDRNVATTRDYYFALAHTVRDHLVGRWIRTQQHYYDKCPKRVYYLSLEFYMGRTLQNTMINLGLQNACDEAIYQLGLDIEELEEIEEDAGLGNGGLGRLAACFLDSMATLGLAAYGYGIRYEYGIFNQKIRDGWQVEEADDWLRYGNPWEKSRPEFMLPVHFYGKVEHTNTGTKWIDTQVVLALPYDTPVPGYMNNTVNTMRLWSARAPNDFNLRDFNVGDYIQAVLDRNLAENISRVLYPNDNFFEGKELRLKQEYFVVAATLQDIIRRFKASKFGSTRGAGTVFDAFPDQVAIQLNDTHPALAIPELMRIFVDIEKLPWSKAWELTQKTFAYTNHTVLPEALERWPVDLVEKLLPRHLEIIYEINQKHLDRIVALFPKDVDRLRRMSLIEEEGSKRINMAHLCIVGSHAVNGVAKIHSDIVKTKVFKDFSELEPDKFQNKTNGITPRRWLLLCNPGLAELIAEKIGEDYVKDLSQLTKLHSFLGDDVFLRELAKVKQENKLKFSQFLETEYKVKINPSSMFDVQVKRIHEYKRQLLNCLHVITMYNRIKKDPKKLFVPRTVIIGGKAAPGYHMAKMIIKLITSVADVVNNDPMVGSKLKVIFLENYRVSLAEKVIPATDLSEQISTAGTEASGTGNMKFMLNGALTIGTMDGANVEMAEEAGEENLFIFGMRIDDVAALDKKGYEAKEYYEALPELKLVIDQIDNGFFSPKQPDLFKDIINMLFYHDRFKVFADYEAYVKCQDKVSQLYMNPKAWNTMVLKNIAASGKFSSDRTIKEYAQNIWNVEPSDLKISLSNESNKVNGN
Description: The purified glycogen phosphorylase (GP) enzyme, wherein glycogen phosphorylase is in the activated “a” state, referred to as human liver glycogen phosphorylase a (HLGPa), can be obtained according to the following procedures.
Frozen purified glycogen phosphorylase (HLGPb) was thawed in at 4° C. then dialyzed overnight into 50 mM HEPES, 100 mM NaCl, pH 7.4. 15 mg of the dialyzed HLGPb, 3 mM ATP and 5 mM MgCl2 was incubated with 500 μl of the prepared Affi-Gel immobilized phosphorylase kinase beads equilibrated with 50 mM HEPES, 100 mM NaCl, pH 7.4. The degree of phosphorylation was monitored by following the increase in activity at 10 minute intervals using the assay system outlined below. […] MgCl2, 3.5 mM KH2PO4, 0.5 mM DTT, 0.4 mg/mL glycogen, 7.5 mM Glucose, 0.50 mM β-nicotinamide adenine dinucleotide (β-NAD), 3 U/mL phosphoglucomutase, and 5 U/mL glucose-6-phosphate dehydrogenase, Activity was monitored by following the reduction of NAD^+ at 340 nm. […]
An enzymatic assay was developed to measure the response of the activated form of glycogen phosphorylase (HLGPa) to small molecule (<1000 Da.) compounds. […] The change in fluorescence due to product formation was measured on a fluorescence plate reader (Molecular Devices SpectraMax M2) with excitation at 560 nm and emission at 590 nm.

male CD rats = assay: In vivo glucagon challenge model; parameters: species or system rat; conditions: glucagon 10 ug/kg + Sandostatin i.v. 2 hr after dosing, serum glucose 0-20 min
Description: Jugular vein cannulated male CD rats (220-260 g) (Charles Rivers, Raleigh, N.C.) were received 1-2 days after cannulation, housed individually on Alpha-Dri™ bedding (Shepherd Specialty Papers, Inc., Kalamazoo, Mich.) with free access to food (Lab Diet 5001, PMI Nutrition International, Brentwood, Mo.) and water and maintained on a 12 h light/dark cycle at 21° C. and 50% relative humidity for 3-4 days prior to the glucagon challenge studies. On the day of the study, the rats were sorted by body weight into treatment groups (N=4-5) and housed individually in shoe box cages with clean Alpha-dri bedding. The cannula lines were opened by removal of 0.2 ml blood and flushed with 0.2 ml sterile saline. After a one hour acclimation, blood samples were collected to determine basal glucose and the rats were orally dosed with vehicle (5% DMSO: 30% Solutol HS15: 20% PEG400: 45% 25 mM N-methylglucamine) or drug (5 ml/kg). Two hr after drug dosing, a time zero blood sample (0.4 ml) was collected for determination of glucose and the rats were dosed through the jugular vein with Sandostatin, 0.5 mg/kg, (Novartis Pharmaceuticals Corp., East Hanover, N.J.) and glucagon, 10 ug/kg (Bedford Laboratories, Bedford, Ohio). Blood samples were collected after 10 and 20 min for glucose determination. Whole blood was placed in a Terumo Capiject blood collection tube (Terumo Medical. Corp., Elkton, Md.), allowed to sit at room temperature for 20-30 minutes and then centrifuged (3,000×G) to obtain serum. Serum levels of glucose were determined using an Olympus AU640™ clinical chemistry immuno-analyzer (Olympus America Inc., Melville, N.Y.). The % reduction (% R) of the vehicle glucose AUG was calculated for each drug treatment using the formula % reduction=100*1−(AUG drug/AUC vehicle), where AUG was calculated from serum glucose values using the equation AUG=(T0+T10)/2*10+(T10+T20)/2*10−(T0*20).

COCc1cc(C)c(NC(=O)Nc2cc(-c3ccc(OC)nc3)ccc2C(=O)N[C@H](C(=O)O)[C@@H](C)OC(C)(C)C)c(C)c1 [Example 1, O-(1,1-Dimethylethyl)-N-({2-{[({2,6-dimethyl-4-[(methyloxy)methyl]phenyl}amino)carbonyl]amino}-4-[6-(methyloxy)-3-pyridinyl]phenyl}carbonyl)-L-threonine]
IC50 [1]: 5 nM | % R (% reduction of the vehicle glucose AUC) (male CD rats; 0.5 mg/kg oral): 32% | % R (% reduction of the vehicle glucose AUC) (male CD rats; 2 mg/kg oral): 53% | % R (% reduction of the vehicle glucose AUC) (male CD rats; 5 mg/kg oral): 63% | % R (% reduction of the vehicle glucose AUC) (male CD rats; 15 mg/kg oral): 70%
